How the values were obtained:
atherosclerotic plaque [1] = conditions: oral dosing, high-fat diet from 2 to 6 months of age; cited from earlier work
atherosclerotic plaque [2] = conditions: infusion, treated for four weeks; cited from earlier work
[3] = test system: synthesis of LTB4 in human whole blood; assay: Human whole blood LTB4 production inhibition assay; type: cell-based; conditions: calcimycin stimulated, read-out: hWB LTB4 IC50
Summary of the method: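 Steps: compound plus heparinized human whole blood, 15 min at 37° C; add calcimycin to 20 μM final; incubate another 30 min at 37° C; centrifuge at low speed and collect plasma; measure LTB4 with a homogeneous time-resolved fluorescence immunoassay.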

[4] = target: recombinant human FLAP protein (Homo sapiens (Human), UniProt P20292); assay: FLAP binding assay (Scintillation Proximity Assay, displacement of [125I]L-691,831); conditions: read-out: FLAP SPA IC50
Sequence of recombinant human FLAP protein (P20292 whole entry): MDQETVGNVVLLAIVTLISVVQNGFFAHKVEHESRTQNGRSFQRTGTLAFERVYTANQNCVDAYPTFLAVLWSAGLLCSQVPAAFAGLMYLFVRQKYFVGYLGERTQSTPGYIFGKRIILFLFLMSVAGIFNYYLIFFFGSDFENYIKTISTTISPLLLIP
Summary of the method: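 Scintillation proximity displacement of an iodinated (125I) FLAP inhibitor by test compounds, using 100,000×g membrane fraction from lysed cells. Final beads 200 μg/well and protein 5 μg/well; plates shaken 2 h before reading.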

Row | IC50 [3] | IC50 [4] | Compound | decrease in plaque coverage in the aorta (atherosclerotic plaque [1]) | decrease in plaque coverage in the aortic root (atherosclerotic plaque [1]) | decrease in plaque area in the aortic root (atherosclerotic plaque [2])
1 |  |  | CC(C)c1ccc2c(c1)c(SC(C)(C)C)c(CC(C)(C)C(=O)O)n2Cc1ccc(Cl)cc1 [MK-886] | 56% | 43% | ~40%
2 | 140 nM | 2.1 nM | CC(C)(O)CNc1ccc(-c2nc(C3(c4ccc(-c5cnc(N)nc5)nc4)CCC3)no2)cn1 [Example 12, 1-{[5-(3-{1-[6-(2-aminopyrimidin-5-yl)pyridin-3-yl]cyclobutyl}-1,2,4-oxadiazol-5-yl)pyridin-2-yl]amino}-2-methylpropan-2-ol] |  |  | 
3 | 100 nM | 2.7 nM | C[C@@H](O)CNc1ccc(-c2nc(C3(c4ccc(-c5cnc(N)nc5)nc4)CCC3)no2)cn1 [Example 44, (2R)-1-{[5-(3-{1-[6-(2-aminopyrimidin-5-yl)pyridin-3-yl]cyclobutyl}-1,2,4-oxadiazol-5-yl)pyridin-2-yl]amino}propan-2-ol] |  |  | 
4 | 43 nM | 15 nM | CC(C)(O)Cn1cc(-c2nc(C3(c4ccc(-c5cnc(N)cn5)nc4)CCC3)no2)cn1 [Example 146, 1-[4-(3-{1-[6-(5-amino-pyrazin-2-yl)-pyridin-3-yl]-cyclobutyl}-[1,2,4]oxadiazol-5-yl)-pyrazol-1-yl]-2-methyl-propan-2-ol] |  |  | 
5 | 110 nM | 2 nM | CCNc1ccc(-c2nc(C3(c4ccc(-c5cnc(N)nc5)nc4)CCC3)no2)cn1 [Example 8, 5-[5-(1-{5-[6-(ethylamino)pyridin-3-yl]-1,2,4-oxadiazol-3-yl}cyclobutyl)pyridin-2-yl]pyrimidin-2-amine] |  |  | 
6 | 550 nM | 63 nM | Nc1ncc(-c2ccc(C3(c4noc(-c5cnn(CC(=O)NC6CC6)c5)n4)CCC3)cn2)cn1 [Example 155, 2-[4-(3-{1-[6-(2-Amino-pyrimidin-5-yl)-pyridin-3-yl]-cyclobutyl}-[1,2,4]oxadiazol-5-yl)-pyrazol-1-yl]-N-cyclopropyl-acetamide] |  |  | 
7 | 280 nM | 73 nM | CNc1ncc(-c2ccc(C3(c4noc(-c5cnn(CC(C)(C)O)c5)n4)CCC3)cn2)cn1 [Example 165, 2-Methyl-1-[4-(3-{1-[6-(2-methylamino-pyrimidin-5-yl)-pyridin-3-yl]-cyclobutyl}-[1,2,4]oxadiazol-5-yl)-pyrazol-1-yl]-propan-2-ol] |  |  | 
8 | 85 nM | 11 nM | N#CCn1cc(-c2nc(C3(c4ccc(-c5cnc(N)nc5)nc4)CCC3)no2)cn1 [Example 141, [4-(3-{1-[6-(2-aminopyrimidin-5-yl)pyridin-3-yl]cyclobutyl}-1,2,4-oxadiazol-5-yl)-1H-pyrazol-1-yl]acetonitrile] |  |  | 
9 | 920 nM | 92 nM | Nc1ncc(-c2ccc(C3(c4noc(N5CCCC5)n4)CCC3)cn2)cn1 [Example 76, 5-(5-{1-[5-(pyrrolidin-1-yl)-1,2,4-oxadiazol-3-yl]cyclobutyl}pyridin-2-yl)pyrimidin-2-amine] |  |  | 
10 | > 5000 nM | 970 nM | Nc1ncc(-c2ccc(C3(c4noc(-c5ccncc5)n4)CCOCC3)nc2)cn1 [Example 138, 5-(6-{4-[5-(pyridin-4-yl)-1,2,4-oxadiazol-3-yl]tetrahydro-2H-pyran-4-yl}pyridin-3-yl)pyrimidin-2-amine] |  |  | 
11 | 74 nM | 4.2 nM | Nc1ccc(-c2nc(C3(c4ccc(-c5cnc(N)nc5)nc4)CCC3)no2)cn1 [Example 111, 5-(5-{1-[5-(6-aminopyridin-3-yl)-1,2,4-oxadiazol-3-yl]cyclobutyl}pyridin-2-yl)pyrimidin-2-amine] |  |  | 
12 | > 5000 nM | 8.7 nM | Nc1ncc(-c2ccc(C3(c4noc(-c5ccc(S(N)(=O)=O)cc5)n4)CCC3)cn2)cn1 [Example 17, 4-(3-{1-[6-(2-aminopyrimidin-5-yl)pyridin-3-yl]cyclobutyl}-1,2,4-oxadiazol-5-yl)benzenesulfonamide] |  |  | 
13 | 46 nM | 4 nM | Nc1ncc(-c2ccc(C3(c4noc(-c5cnn6cccnc56)n4)CCC3)cn2)cn1 [Example 25, 5-(5-{1-[5-(pyrazolo[1,5-a]pyrimidin-3-yl)-1,2,4-oxadiazol-3-yl]cyclobutyl}pyridin-2-yl)pyrimidin-2-amine] |  |  | 
14 | 660 nM | 7.5 nM | Nc1ncc(-c2ccc(C3(c4noc(-c5ccc(Cl)nc5)n4)CCC3)cn2)cn1 [Example 99, 5-(5-{1-[5-(6-chloropyridin-3-yl)-1,2,4-oxadiazol-3-yl]cyclobutyl}pyridin-2-yl)pyrimidin-2-amine] |  |  | 
15 | 530 nM | 9.2 nM | Cn1cc(-c2nc(C3(c4ccc(-c5cnc(N)nc5)nc4)CCC3)no2)c(C(F)(F)F)n1 [Example 20, 5-[5-(1-{5-[1-methyl-3-(trifluoromethyl)-1H-pyrazol-4-yl]-1,2,4-oxadiazol-3-yl}cyclobutyl)pyridin-2-yl]pyrimidin-2-amine] |  |  | 
16 | 480 nM | 17 nM | CC(C)(O)c1ccc(-c2nc(C3(c4ccc(-c5cnc(N)nc5)nc4)CCC3)no2)cn1 [Example 82, 2-[5-(3-{1-[6-(2-aminopyrimidin-5-yl)pyridin-3-yl]cyclobutyl}-1,2,4-oxadiazol-5-yl)pyridin-2-yl]propan-2-ol] |  |  | 
17 | 410 nM | 52 nM | N#Cc1ccc(-c2nc(C3(c4ccc(-c5cnc(N)nc5)nc4)CCC3)no2)cn1 [Example 83, 5-(3-{1-[6-(2-aminopyrimidin-5-yl)pyridin-3-yl]cyclobutyl}-1,2,4-oxadiazol-5-yl)pyridine-2-carbonitrile] |  |  | 
18 | 340 nM | 28 nM | Nc1ncc(-c2ccc(C3(c4noc(-c5cnn(C6CCS(=O)(=O)C6)c5)n4)CCC3)cn2)cn1 (stereo not shown) [Example 139, 5-[5-(1-{5-[1-(1,1-dioxidotetrahydrothiophen-3-yl)-1H-pyrazol-4-yl]-1,2,4-oxadiazol-3-yl}cyclobutyl)pyridin-2-yl]pyrimidin-2-amine] |  |  | 
19 | 1100 nM | 8.8 nM | Cc1cccc(-c2nc(C3(c4ccc(-c5cnc(N)nc5)nc4)CCC3)no2)c1 [Example 5, 5-(5-{1-[5-(3-methylphenyl)-1,2,4-oxadiazol-3-yl]cyclobutyl}pyridin-2-yl)pyrimidin-2-amine] |  |  | 
20 | 94 nM | 18 nM | CC(C)(C#N)n1cc(-c2nc(C3(c4ccc(-c5cnc(N)nc5)nc4)CCC3)no2)cn1 [Example 151, 2-[4-(3-{1-[6-(2-amino-pyrimidin-5-yl)-pyridin-3-yl]-cyclobutyl}-[1,2,4]oxadiazol-5-yl)-pyrazol-1-yl]-2-methyl-propionitrile] |  |  | 
21 | 84 nM | 2.8 nM | COCCNc1ccc(-c2nc(C3(c4ccc(-c5cnc(N)nc5)nc4)CCC3)no2)cn1 [Example 118, 5-{5-[1-(5-{6-[(2-methoxyethyl)amino]pyridin-3-yl}-1,2,4-oxadiazol-3-yl)cyclobutyl]pyridin-2-yl}pyrimidin-2-amine] |  |  | 
22 | 400 nM | 9.6 nM | COc1cc(-c2nc(C3(c4ccc(-c5cnc(N)nc5)nc4)CCC3)no2)ccn1 [Example 93, 5-(5-{1-[5-(2-methoxypyridin-4-yl)-1,2,4-oxadiazol-3-yl]cyclobutyl}pyridin-2-yl)pyrimidin-2-amine] |  |  | 
23 | 400 nM | 27 nM | 5-(6-{1-[5-(3-methyl- 1H-pyrazol-4-yl)-1,2,4- oxadiazol-3- yl]cyclobutyl}pyridin-3- yl)pyrimidin-2-amine [Example 135] |  |  | 
24 | 750 nM | 3.1 nM | Nc1ncc(-c2ccc(C3(c4noc(-c5ccc(N6CCC[C@@H]6CO)nc5)n4)CCC3)cn2)cn1 [Example 45, {(2R)-1-[5-(3-{1-[6-(2-aminopyrimidin-5-yl)pyridin-3-yl]cyclobutyl}-1,2,4-oxadiazol-5-yl)pyridin-2-yl]pyrrolidin-2-yl}methanol] |  |  | 
25 | > 5000 nM | 29 nM | Nc1ncc(-c2ccc(C3(c4noc(-c5ccc[nH]c5=O)n4)CCC3)cn2)cn1 [Example 95, 3-(3-{1-[6-(2-aminopyrimidin-5-yl)pyridin-3-yl]cyclobutyl}-1,2,4-oxadiazol-5-yl)pyridin-2(1H)-one] |  |  | 
26 | 2600 nM | 2.2 nM | Nc1ncc(-c2ccc(C3(c4noc(-c5ccc(NC(CO)CO)nc5)n4)CCC3)cn2)cn1 [Example 33, 2-{[5-(3-{1-[6-(2-aminopyrimidin-5-yl)pyridin-3-yl]cyclobutyl}-1,2,4-oxadiazol-5-yl)pyridin-2-yl]amino}propane-1,3-diol] |  |  | 
27 | 250 nM | 2.6 nM | CC(C)(CO)Nc1ccc(-c2nc(C3(c4ccc(-c5cnc(N)nc5)nc4)CCC3)no2)cn1 [Example 21, 2-{[5-(3-{1-[6-(2-aminopyrimidin-5-yl)pyridin-3-yl]cyclobutyl}-1,2,4-oxadiazol-5-yl)pyridin-2-yl]amino}-2-methylpropan-1-ol] |  |  | 
28 | 150 nM | 2.7 nM | Nc1ncc(-c2ccc(C3(c4noc(-c5ccc(N6CCNCC6)nc5)n4)CCC3)cn2)cn1 [Example 3, 5-[5-(1-{5-[6-(piperazin-1-yl)pyridin-3-yl]-1,2,4-oxadiazol-3-yl}cyclobutyl)pyridin-2-yl]pyrimidin-2-amine] |  |  | 
29 | 830 nM | 5.8 nM | Cc1ccc(-c2nc(C3(c4ccc(-c5cnc(N)nc5)nc4)CCC3)no2)cc1 [Example 6, 5-(5-{1-[5-(4-methylphenyl)-1,2,4-oxadiazol-3-yl]cyclobutyl}pyridin-2-yl)pyrimidin-2-amine] |  |  | 
30 | 95 nM | 1.8 nM | Nc1ncc(-c2ccc(C3(c4noc(-c5ccc(NCC6(O)CC6)nc5)n4)CCC3)cn2)cn1 [Example 18, 1-({[5-(3-{1-[6-(2-aminopyrimidin-5-yl)pyridin-3-yl]cyclobutyl}-1,2,4-oxadiazol-5-yl)pyridin-2-yl]amino}methyl)cyclo-propanol] |  |  | 
